In patent publication US11440913B2, “Aminoimidazopyridazines as kinase inhibitors” (BRISTOL-MYERS SQUIBB COMPANY, priority 2017, dated 2022):
Where a name gives a salt, the structure may show the parent alone. Read-outs that look alike come from different tables or passages of the source.

What was measured:
[1] = tested on: MLKL phosphorylation in HT29-L23 human colorectal adenocarcinoma cells; experiment: MLKL Phosphorylation High-Content Assay; format: cell-based; conditions: necroptosis induced with TNFα, SMAC mimetic and Z-VAD, 6 h, read-out: pMLKL (IC50)
Outline: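 HT29-L23 cells pretreated 30 min at 37 °C with compound (6.25 to 0.106 μM final), then necroptosis induced with TNFα 35 ng/mL, SMAC mimetic 700 nM and Z-VAD 140 nM for 6 h. Fixed cells immunostained for MLKL pS358 and imaged; IC50 and Ymax from 4-parameter logistic fit.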

[2] = target: His-GST-TVMV-hRIPK1(1-324) (Homo sapiens (Human), UniProt Q13546); experiment: RIPK1 HTRF Binding Assay; conditions: HTRF binding, 1 h at rt, read-out: RIPK1 (IC50)
His-GST-TVMV-hRIPK1(1-324), sequence (Q13546 1-324): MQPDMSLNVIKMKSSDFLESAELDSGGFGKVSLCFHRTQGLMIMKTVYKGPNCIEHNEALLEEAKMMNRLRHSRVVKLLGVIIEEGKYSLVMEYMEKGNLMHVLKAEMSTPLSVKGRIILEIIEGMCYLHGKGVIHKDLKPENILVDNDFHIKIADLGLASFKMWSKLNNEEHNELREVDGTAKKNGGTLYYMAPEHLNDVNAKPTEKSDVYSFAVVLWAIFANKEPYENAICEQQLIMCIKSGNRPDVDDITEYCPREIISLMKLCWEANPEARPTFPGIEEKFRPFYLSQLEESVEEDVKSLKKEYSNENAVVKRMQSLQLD
Outline: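 HTRF probe-displacement binding: 1 nM His-GST-TVMV-hRIPK1(1-324) (baculovirus construct), 90.6 nM probe, 0.2 nM anti-GST-Tb in 20 mM HEPES, 10 mM MgCl2, 0.015% Brij-35, 4 mM DTT, 0.05 mg/mL BSA. Incubated 1 h at rt; FRET 520/495 nm ratio, inhibition relative to DMSO-only wells.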

| Structure (SMILES) | IC50 ([1]; TFA) | IC50 ([2]; TFA) | IC50 ([1]; Homo sapiens) | IC50 [2] | IC50 [1] |
| --- | --- | --- | --- | --- | --- |
| COc1ncc(-c2ccc3nc(NC(C)=O)cn3n2)cc1C(=O)NC(C)c1c(F)cccc1OCC1CC1 (stereo not shown) [Example 122, N-{1-[2-(cyclopropylmethoxy)-6-fluorophenyl]ethyl}-5-{2-acetamidoimidazo[1,2-b]pyridazin-6-yl}-2-methoxypyridine-3-carboxamide, TFA] | 15 nM | 5 nM |  |  |  |
| COc1ncc(-c2ccc3nc(NC(C)=O)cn3n2)cc1C(=O)NC(C)c1cccc(OC(F)(F)F)c1 (stereo not shown) [Example 123, 5-{2-acetamidoimidazo[1,2-b]pyridazin-6-yl}-2-methoxy-N-{1-[3-(trifluoro-methoxy)phenyl]ethyl}pyridine-3-carboxamide] |  |  | 218 nM | 37 nM |  |
| COc1ncc(-c2ccc3nc(NC(C)=O)cn3n2)cc1C(=O)NC(C)c1c(F)cccc1OCC1CC1 (stereo not shown) [Example 124, N-{1-[2-(cyclopropylmethoxy)-6-fluorophenyl]ethyl}-5-{2-acetamidoimidazo[1,2-b]pyridazin-6-yl}-2-methoxypyridine-3-carboxamide, TFA] | 14 nM | 6 nM |  |  |  |
| COc1ncc(-c2ccc3nc(NC(C)=O)cn3n2)cc1C(=O)NC(C)c1cccc(OC(F)(F)F)c1 (stereo not shown) [Example 125, 5-{2-acetamidoimidazo[1,2-b]pyridazin-6-yl}-2-methoxy-N-{1-[3-(trifluoro-methoxy)phenyl]ethyl}pyridine-3-carboxamide] |  |  |  | 34 nM | 153 nM |
| COc1ncc(-c2ccc3nc(NC(C)=O)cn3n2)cc1C(=O)NCc1cccc(OC(F)(F)F)c1 [Example 126, 5-{2-acetamidoimidazo[1,2-b]pyridazin-6-yl}-2-methoxy-N-{[3-(trifluoro-methoxy)phenyl]methyl}pyridine-3-carboxamide] |  |  | 78 nM | 73 nM |  |
| COc1ncc(-c2ccc3nc(NC(C)=O)cn3n2)cc1C(=O)NCc1c(F)ccc(F)c1OCC1CC1 [Example 127, N-{[2-(cyclopropylmethoxy)-3,6-difluorophenyl]methyl}-5-{2-acetamidoimidazo[1,2-b]pyridazin-6-yl}-2-methoxypyridine-3-carboxamide] |  |  | 33 nM | 4 nM |  |
| COc1ncc(-c2ccc3nc(NC(C)=O)cn3n2)cc1C(=O)NCc1c(F)cccc1OC1CCOCC1 [Example 128, 5-{2-acetamidoimidazo[1,2-b]pyridazin-6-yl}-N-{[2-fluoro-6-(oxan-4-yloxy)phenyl]methyl}-2-methoxypyridine-3-carboxamide, TFA] |  |  |  | 9 nM | 64 nM |
| COc1ncc(-c2ccc3nc(NC(C)=O)cn3n2)cc1C(=O)NCc1cc(F)cc(F)c1OC1CCOCC1 [Example 129, N-{[3,5-difluoro-2-(oxan-4-yloxy)phenyl]methyl}-5-{2-acetamidoimidazo[1,2-b]pyridazin-6-yl}-2-methoxypyridine-3-carboxamide, TFA] |  |  |  | 1 nM | 2 nM |
| COc1ncc(-c2ccc3nc(NC(C)=O)cn3n2)cc1C(=O)NC(C)c1cc(F)cc(F)c1OCC1CC1 (stereo not shown) [Example 130, N-{1-[2-(cyclopropylmethoxy)-3,5-difluorophenyl]ethyl}-5-{2-acetamidoimidazo[1,2-b]pyridazin-6-yl}-2-methoxypyridine-3-carboxamide] |  |  |  | 4 nM | 3 nM |
| COc1ncc(-c2ccc3nc(NC(C)=O)cn3n2)cc1C(=O)NCc1ccc(F)c(F)c1OC(C)C1CC1 (stereo not shown) [Example 131, N-{[2-(1-cyclopropylethoxy)-3,4-difluorophenyl]methyl}-5-{2-acetamidoimidazo[1,2-b]pyridazin-6-yl}-2-methoxypyridine-3-carboxamide] |  |  |  | 79 nM | 481 nM |
| COc1ncc(-c2ccc3nc(NC(C)=O)cn3n2)cc1C(=O)NCc1ccc(F)c(F)c1OC(C)C1CC1 (stereo not shown) [Example 132, N-{[2-(1-cyclopropylethoxy)-3,4-difluorophenyl]methyl}-5-{2-acetamidoimidazo[1,2-b]pyridazin-6-yl}-2-methoxypyridine-3-carboxamide] |  |  |  | 10 nM | 64 nM |
| COc1ncc(-c2ccc3nc(NC(C)=O)cn3n2)cc1C(=O)NC(C)c1cc(F)cc(F)c1OCC1CC1 (stereo not shown) [Example 133, N-{1-[2-(cyclopropylmethoxy)-3,5-difluorophenyl]ethyl}-5-{2-acetamidoimidazo[1,2-b]pyridazin-6-yl}-2-methoxypyridine-3-carboxamide] |  |  |  | 23 nM | 8 nM |
| COc1ncc(-c2ccc3nc(NC(C)=O)cn3n2)cc1C(=O)NCc1cccc(F)c1OC(C)C1CC1 (stereo not shown) [Example 134, N-{[2-(1-cyclopropylethoxy)-3-fluorophenyl]methyl}-5-{2-acetamidoimidazo[1,2-b]pyridazin-6-yl}-2-methoxypyridine-3-carboxamide] |  |  |  | 18 nM | 28 nM |
| COc1ncc(-c2ccc3nc(NC(C)=O)cn3n2)cc1C(=O)NCc1cccc(F)c1OC(C)C1CC1 (stereo not shown) [Example 135, N-{[2-(1-cyclopropylethoxy)-3-fluorophenyl]methyl}-5-{2-acetamidoimidazo[1,2-b]pyridazin-6-yl}-2-methoxypyridine-3-carboxamide] |  |  |  | 3 nM | 7 nM |
| COc1ncc(-c2ccc3nc(NC(C)=O)cn3n2)cc1C(=O)NCc1ncccc1OC(C)C1CC1 (stereo not shown) [Example 136, N-{[3-(1-cyclopropylethoxy)pyridin-2-yl]methyl}-5-{2-acetamidoimidazo[1,2-b]pyridazin-6-yl}-2-methoxypyridine-3-carboxamide] |  |  | 100 nM | 17 nM |  |
| COc1ncc(-c2ccc3nc(NC(C)=O)cn3n2)cc1C(=O)NC(C)c1ccccc1OC(F)(F)F (stereo not shown) [Example 137, 5-{2-acetamidoimidazo[1,2-b]pyridazin-6-yl}-2-methoxy-N-{1-[2-(trifluoro-methoxy)phenyl]ethyl}pyridine-3-carboxamide] |  |  | 14 nM | 7 nM |  |
| COc1ncc(-c2ccc3nc(NC(C)=O)cn3n2)cc1C(=O)NCc1cc(F)cc(OC(F)(F)F)c1 [Example 138, 5-{2-acetamidoimidazo[1,2-b]pyridazin-6-yl}-N-{[3-fluoro-5-(trifluoromethoxy)phenyl]methyl}-2-methoxypyridine-3-carboxamide] |  |  | 72 nM | 13 nM |  |
| COc1ncc(-c2ccc3nc(NC(C)=O)cn3n2)cc1C(=O)NC(C)c1ccccc1OC(F)(F)F (stereo not shown) [Example 139, 5-{2-acetamidoimidazo[1,2-b]pyridazin-6-yl}-2-methoxy-N-{1-[2-(trifluoro-methoxy)phenyl]ethyl}pyridine-3-carboxamide] |  |  |  | 15 nM | 25 nM |
| COc1ncc(-c2ccc3nc(NC(C)=O)cn3n2)cc1C(=O)NCc1cc(F)cc(OCC2CC2)c1 [Example 140, N-{[3-(cyclopropylmethoxy)-5-fluorophenyl]methyl}-5-{2-acetamidoimidazo[1,2-b]pyridazin-6-yl}-2-methoxypyridine-3-carboxamide] |  |  | 77 nM | 17 nM |  |
| COc1ncc(-c2ccc3nc(NC(C)=O)cn3n2)cc1C(=O)NCc1c(F)ccc(F)c1OC [Example 141, N-[(3,6-difluoro-2-methoxyphenyl)methyl]-5-{2-acetamidoimidazo[1,2-b]pyridazin-6-yl}-2-methoxypyridine-3-carboxamide] |  |  | 256 nM | 97 nM |  |
| COc1ncc(-c2ccc3nc(NC(C)=O)cn3n2)cc1C(=O)NCc1ccc(F)c(OCC2CC2)c1 [Example 142, N-{[3-(cyclopropylmethoxy)-4-fluorophenyl]methyl}-5-{2-acetamidoimidazo[1,2-b]pyridazin-6-yl}-2-methoxypyridine-3-carboxamide] |  |  | 181 nM | 29 nM |  |
| COc1ncc(-c2ccc3nc(NC(C)=O)cn3n2)cc1C(=O)N(C)Cc1cccc(OC(F)(F)F)c1 [Example 143, 5-{2-acetamidoimidazo[1,2-b]pyridazin-6-yl}-2-methoxy-N-methyl-N-{[3-(trifluoromethoxy)phenyl]meth-yl}pyridine-3-carboxamide] |  |  | 4 nM | 8 nM |  |
| COc1ncc(-c2ccc3nc(NC(C)=O)cn3n2)cc1C(=O)NCc1cccc(F)c1OC(C)C1CC1 (stereo not shown) [Example 144, N-{[2-(1-cyclopropylethoxy)-3-fluorophenyl]methyl}-5-{2-acetamidoimidazo[1,2-b]pyridazin-6-yl}-2-methoxypyridine-3-carboxamide] |  |  |  | 6 nM | 6 nM |
| COc1ncc(-c2ccc3nc(NC(C)=O)cn3n2)cc1C(=O)NCc1cc(OC(F)(F)F)ccc1F [Example 145, 5-{2-acetamidoimidazo[1,2-b]pyridazin-6-yl}-N-{[2-fluoro-5-(trifluoro-methoxy)phenyl](deutero)methyl}-2-methoxypyridine-3-carboxamide] |  |  |  | 5 nM | 27 nM |
| COc1ncc(-c2ccc3nc(NC(C)=O)cn3n2)cc1C(=O)NCc1cc(C(F)(F)F)ccc1Cl [Example 147, N-{[2-chloro-5-(trifluoromethyl)phenyl]methyl}-5-{2-acetamidoimidazo[1,2-b]pyridazin-6-yl}-2-methoxypyridine-3-carboxamide] |  |  | 37 nM | 95 nM |  |
| COc1ncc(-c2ccc3nc(NC(C)=O)cn3n2)cc1C(=O)NCc1cc(F)cc(F)c1OC(C)C1CC1 (stereo not shown) [Example 148, N-{[2-(1-cyclopropylethoxy)-3,5-difluorophenyl]methyl}-5-(2-acetamidoimidazo[1,2-b]pyridazin-6-yl}-2-methoxypyridine-3-carboxamide] |  |  | 2 nM | 4 nM |  |
